Measurements published in patent publication US4230846A, “1,5-Carbamates of fortimicin B and derivatives” (Abbott Laboratories, priority 1979, dated 1980).
Where a name gives a salt, the structure may show the parent alone. Read-outs that look alike come from different tables or passages of the source.

What was measured:
[1] = system: Psuedo. aeruginosa KY 8516; experiment: In vitro antimicrobial activity, 2-fold agar dilution; assay type: cell-based
Description: (§1) 21, 1977. The in vitro activity of 2-deoxyfortimicin As set forth in Table I. The in vitro activity of 2-deoxyfortiicin A tetrahydrochloride, fortimicin A disulfate and fortimicin A tetrahydrochloride were determined using a 2-fold agar dilution method using 10 ml per petri plate of Mueller-Hinton agar. The agar was inoculated with one loopful (0.001 ml/loop) of a 1:10 dilution of a 24 hour broth culture of the indicated test organism and incubated at 37° C. for 24 hours.

E coli 76-2 = experiment: as above; assay type: cell-based; conditions: Mueller-Hinton agar, 37° C., 24 hours
Description: as §1

COC1CC(N)C(OC2OC(C(C)N)CCC2N)C(O)C1N(C)C(=O)CN (centres unmarked) [2-deoxyfortimicin A tetrahydrochloride]
MIC ([1]; Psuedo. aeruginosa KY 8516, Mueller-Hinton agar, 37° C., 24 hours, read-out: Minimum inhibitory concentration): 50 µg/mL | MIC (E coli 76-2; read-out: Minimum inhibitory concentration): 3.1 µg/mL

COC1C(O)C(N)C(OC2OC(C(C)N)CCC2N)C(O)C1N(C)C(=O)CN (centres unmarked) [Fortimicin A disulfate, fortimicin A disulfate]
MIC ([1]; 24 h, read-out: Minimum inhibitory concentration, Psuedo. aeruginosa KY 8516, Mueller-Hinton agar, 37° C.): 50 µg/mL

COC1C(O)C(N)C(OC2OC(C(C)N)CCC2N)C(O)C1N(C)C(=O)CN (centres unmarked) [Fortimicin A tetrahydrochloride, fortimicin A tetrahydrochloride]
Minimum inhibitory concentration ([1]; Psuedo. aeruginosa KY 8516, Mueller-Hinton agar, 37° C., 24 hours): 100 µg/mL | Minimum inhibitory concentration (E coli 76-2): 3.1 µg/mL
